Details: biotinylated peptide in TBST with 1 mg/mL BSA, 1 hour at room temperature, streptavidin-HRP/TMB, A450; MB50 calculated from Scatchard plots
Method: The MB50 provides an indication of the strength of the binding interaction or affinity of the components of the complex.
Then, the streptavidin-horseradish peroxidase (HRP) conjugate (Pierce Chemical Co., Rockford, Ill.) was added to each well (1.0 μg per well), and incubated for 1 h at room temperature, followed by 6 times of washes with TBST. […] The results were plotted as A450 versus the concentration of peptide using GraphPad Prism 4.0 (GraphPad Software, Inc., San Diego, Calif.).

Substance | MB50 [nM]
SLRRRWTTFGKILRRWTLPTAMLLVMM-K(biotin)-NH2 [CXH-W4] | 21
RRSMSLRMLTRGIKWSAMAYLASRWIL-K(biotin)-NH2 [CXH-W3] | 72

— patent US8287845B2, “Hair-binding peptides” (E I du Pont de Nemours and Company, priority 2008, dated 2012)
